IC50, inhibition and Activity data for 21 compounds are collected here from ChEMBL document CHEMBL3627633, “Synthesis of potent urease inhibitors based on disulfide scaffold and their molecular docking studies” (Bioorg Med Chem, 2015).

Each structure is given as a SMILES string. Calls of active or inactive are those of the source. The rule behind the calls is not given here.

In one series the target is Urease (Canavalia ensiformis, UniProt P07374). In words: Inhibition of jack bean urease using urea as substrate assessed as ammonia production incubated for 15 mins by indophenol method.
Chain of Urease (P07374 whole entry): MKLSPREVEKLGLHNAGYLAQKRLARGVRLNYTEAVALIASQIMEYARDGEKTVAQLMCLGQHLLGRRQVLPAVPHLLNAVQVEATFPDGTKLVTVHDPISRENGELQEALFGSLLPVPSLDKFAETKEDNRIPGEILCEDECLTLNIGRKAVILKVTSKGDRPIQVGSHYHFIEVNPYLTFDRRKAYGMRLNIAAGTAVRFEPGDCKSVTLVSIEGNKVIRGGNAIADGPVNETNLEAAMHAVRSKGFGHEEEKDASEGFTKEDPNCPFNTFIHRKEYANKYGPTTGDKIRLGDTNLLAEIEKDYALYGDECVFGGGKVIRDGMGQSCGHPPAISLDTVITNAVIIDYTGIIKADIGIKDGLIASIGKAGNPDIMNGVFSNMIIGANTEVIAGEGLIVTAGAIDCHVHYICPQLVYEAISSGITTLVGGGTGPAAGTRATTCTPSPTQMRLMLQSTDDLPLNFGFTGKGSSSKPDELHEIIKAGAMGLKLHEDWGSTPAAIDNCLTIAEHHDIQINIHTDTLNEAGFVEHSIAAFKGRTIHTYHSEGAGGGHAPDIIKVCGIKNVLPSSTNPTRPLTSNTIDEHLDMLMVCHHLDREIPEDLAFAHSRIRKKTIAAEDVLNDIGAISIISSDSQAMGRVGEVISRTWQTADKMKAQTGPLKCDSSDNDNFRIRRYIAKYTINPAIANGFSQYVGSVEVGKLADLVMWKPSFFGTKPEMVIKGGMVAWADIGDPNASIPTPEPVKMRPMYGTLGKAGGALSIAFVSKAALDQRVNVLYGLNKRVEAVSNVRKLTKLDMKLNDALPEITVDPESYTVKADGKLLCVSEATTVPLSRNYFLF
For a further series, the system named is Serpentes. In words: Inhibition of snake venom NPP1 using bis(p-nitrophenyl)phosphate as substrate assessed as p-nitrophenol release preincubated for 30 mins by spectrophotometry.
The target of series [1] is Cholinesterase (Equus caballus) (UniProt P81908). In words: Inhibition of equine serum butyrylcholinesterase using […] as substrate preincubated for 15 mins followed by substrate addition measured every 1 min by Ellman's method.
Chain of Cholinesterase (Equus caballus) (P81908 whole entry): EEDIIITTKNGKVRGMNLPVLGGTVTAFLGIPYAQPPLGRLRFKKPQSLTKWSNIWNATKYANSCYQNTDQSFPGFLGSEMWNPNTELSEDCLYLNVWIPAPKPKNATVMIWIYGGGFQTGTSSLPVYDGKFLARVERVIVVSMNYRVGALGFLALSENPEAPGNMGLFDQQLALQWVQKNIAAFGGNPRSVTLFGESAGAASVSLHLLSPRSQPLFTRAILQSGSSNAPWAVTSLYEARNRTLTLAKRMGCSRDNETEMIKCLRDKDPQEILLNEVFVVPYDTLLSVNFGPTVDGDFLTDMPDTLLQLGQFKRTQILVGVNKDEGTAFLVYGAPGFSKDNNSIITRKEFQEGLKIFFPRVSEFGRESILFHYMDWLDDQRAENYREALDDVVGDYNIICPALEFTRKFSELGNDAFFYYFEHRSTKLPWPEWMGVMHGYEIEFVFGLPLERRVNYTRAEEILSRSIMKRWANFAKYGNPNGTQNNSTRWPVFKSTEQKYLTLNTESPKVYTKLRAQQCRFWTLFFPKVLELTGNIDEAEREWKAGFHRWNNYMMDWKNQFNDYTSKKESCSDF
Series [2] has as its target Carbonic anhydrase (Homo sapiens) (UniProt P00918+P43166+P00915+P07451+P23280+O43570+Q9ULX7+Q16790+P22748+Q8N1Q1+Q9Y2D0+P35218). In words: Inhibition of carbonic anhydrase (unknown origin). Type of series: protein assay.
A short description of series [3]: Cytotoxicity against Wistar rat CC1 cells assessed as cell viability at 1 to 20 ug/ml after 48 hrs by MTT assay. In kind it is cell-based. The note with it: cc-1, 48 h.
Series [4] is described as follows: Cytotoxicity against mouse 3T3L1 cells assessed as cell viability at 1 to 20 ug/ml after 48 hrs by MTT assay. Type of series: cell-based. The note with it: 3t3-l1, 48 h.

In the case of `O=[N+]([O-])c1ccc(NC(=S)Nc2ccccc2SSc2ccccc2NC(=S)Nc2ccc([N+](=O)[O-])cc2)cc1`, the IC50 at Urease was 6.4 µM. Also, the inhibition result (in the series on Serpentes; in series [1]; in series [2]) was “inactive” in each case. Also, the Activity result in series [3] and in series [4] was “Non-toxic” each time.
For `Cc1ccccc1NC(=S)Nc1ccccc1SSc1ccccc1NC(=S)Nc1ccccc1C`, at Urease, the IC50 worked out at 1.1 µM. Moreover, the inhibition result (with Serpentes; in series [1]; in series [2]) was “inactive” each time. In addition, the Activity result in series [3] and in series [4] was “Non-toxic” in each case.
As to `NC(N)=S` [THIOUREA], at Urease, the half-maximal inhibitory concentration (IC50) is 19.5 µM.
For the compound `Fc1ccccc1NC(=S)Nc1ccccc1SSc1ccccc1NC(=S)Nc1ccccc1F`, on Urease, the 50% inhibitory concentration (IC50) is 0.7 µM. Moreover, the inhibition result (with Serpentes; in series [1]; in series [2]) was “inactive” in each case. For the same compound, the Activity entry in series [3] and in series [4] was “Non-toxic” throughout.
For `Cc1ccc(NC(=S)Nc2ccccc2SSc2ccccc2NC(=S)Nc2ccc(C)cc2)cc1`, on Urease, the concentration for half-maximal inhibition (IC50) was found to be 1.4 µM. The inhibition entry (in the series on Serpentes; in series [1]; in series [2]) was “inactive” each time. For the same compound, the Activity entry in series [3] and in series [4] was “Non-toxic” in each case.
In the case of `O=[N+]([O-])c1cccc(NC(=S)Nc2ccccc2SSc2ccccc2NC(=S)Nc2cccc([N+](=O)[O-])c2)c1`, the IC50 on Urease came to 12.3 µM. In addition, the inhibition entry (in the series with Serpentes; in series [1]; in series [2]) was “inactive” throughout. For the same compound, the Activity entry in series [3] and in series [4] was “Non-toxic” each time.
On to `Fc1cccc(NC(=S)Nc2ccccc2SSc2ccccc2NC(=S)Nc2cccc(F)c2)c1`, for which the IC50 on Urease came out at 1.5 µM. Besides, the inhibition result (in the series with Serpentes; in series [1]; in series [2]) was “inactive” throughout. Also, the Activity entry in series [3] and in series [4] was “Non-toxic” throughout.
On to `COc1cccc(NC(=S)Nc2ccccc2SSc2ccccc2NC(=S)Nc2cccc(OC)c2)c1`, for which, at Urease, the IC50 stood at 14.6 µM. Further, the inhibition result (with Serpentes; in series [1]; in series [2]) was “inactive” in each case. Besides, the Activity entry in series [3] and in series [4] was “Non-toxic” throughout.
Regarding `COc1ccc(NC(=S)Nc2ccccc2SSc2ccccc2NC(=S)Nc2ccc(OC)cc2)cc1`, the half-maximal inhibitory concentration (IC50) on Urease is 4.2 µM. For the same compound, the inhibition result (with Serpentes; in series [1]; in series [2]) was “inactive” in each case. For the same compound, the Activity entry in series [3] and in series [4] was “Non-toxic” in each case.
Regarding `S=C(Nc1ccccc1Cl)Nc1ccccc1SSc1ccccc1NC(=S)Nc1ccccc1Cl`, the IC50 at Urease turned out to be 3.4 µM. Moreover, the inhibition result (in the series on Serpentes; in series [1]; in series [2]) was “inactive” throughout. For the same compound, the Activity result in series [3] and in series [4] was “Non-toxic” in each case.
On to `S=C(Nc1ccccc1SSc1ccccc1NC(=S)NC12CC3CC(CC(C3)C1)C2)NC12CC3CC(CC(C3)C1)C2`, for which the IC50 on Urease is 17.6 µM. For the same compound, the inhibition entry (in the series on Serpentes; in series [1]; in series [2]) was “inactive” in each case. Besides, the Activity entry in series [3] and in series [4] was “Non-toxic” each time.
Consider `FC(F)(F)c1ccc(NC(=S)Nc2ccccc2SSc2ccccc2NC(=S)Nc2ccc(C(F)(F)F)cc2)cc1`, for which, on Urease, the half-maximal inhibitory concentration (IC50) worked out at 1.5 µM. For the same compound, the inhibition entry (in the series on Serpentes; in series [1]; in series [2]) was “inactive” each time. Besides, the Activity entry in series [3] and in series [4] was “Non-toxic” throughout.
Take `S=C(Nc1ccccc1)Nc1ccccc1SSc1ccccc1NC(=S)Nc1ccccc1`: the IC50 at Urease was found to be 15.1 µM. Also, the inhibition entry (with Serpentes; in series [1]; in series [2]) was “inactive” in each case. Besides, the Activity result in series [3] and in series [4] was “Non-toxic” throughout.
As for `Cc1cccc(NC(=S)Nc2ccccc2SSc2ccccc2NC(=S)Nc2cccc(C)c2)c1`, at Urease, the IC50 is 3.7 µM. The inhibition result (with Serpentes; in series [1]; in series [2]) was “inactive” throughout. Further, the Activity entry in series [3] and in series [4] was “Non-toxic” each time.
For `S=C(Nc1ccc(Cl)cc1)Nc1ccccc1SSc1ccccc1NC(=S)Nc1ccc(Cl)cc1`, the IC50 at Urease worked out at 1.6 µM. Further, the inhibition entry (with Serpentes; in series [1]; in series [2]) was “inactive” each time. Moreover, the Activity entry in series [3] and in series [4] was “Non-toxic” throughout.
Take `S=C(Nc1ccc(Cl)c(Cl)c1)Nc1ccccc1SSc1ccccc1NC(=S)Nc1ccc(Cl)c(Cl)c1`: the IC50 at Urease is 3.2 µM. Moreover, the inhibition entry (in the series with Serpentes; in series [1]; in series [2]) was “inactive” each time. For the same compound, the Activity result in series [3] and in series [4] was “Non-toxic” in each case.
`S=C(Nc1ccccc1Br)Nc1ccccc1SSc1ccccc1NC(=S)Nc1ccccc1Br`: the 50% inhibitory concentration (IC50) at Urease was found to be 18.6 µM. Also, the inhibition result (in the series on Serpentes; in series [1]; in series [2]) was “inactive” throughout. Also, the Activity entry in series [3] and in series [4] was “Non-toxic” throughout.
Take `COc1ccccc1NC(=S)Nc1ccccc1SSc1ccccc1NC(=S)Nc1ccccc1OC`: the IC50 at Urease was found to be 1.7 µM. Also, the inhibition entry (in the series with Serpentes; in series [1]; in series [2]) was “inactive” in each case. For the same compound, the Activity result in series [3] and in series [4] was “Non-toxic” each time.
Take `S=C(Nc1cccc(Br)c1)Nc1ccccc1SSc1ccccc1NC(=S)Nc1cccc(Br)c1`: the IC50 at Urease came out at 10.3 µM. The inhibition entry (in the series with Serpentes; in series [1]; in series [2]) was “inactive” each time. Besides, the Activity result in series [3] and in series [4] was “Non-toxic” each time.
Take `S=C(Nc1ccc(Br)cc1)Nc1ccccc1SSc1ccccc1NC(=S)Nc1ccc(Br)cc1`: the IC50 on Urease was 4.3 µM. Also, the inhibition entry (in the series with Serpentes; in series [1]; in series [2]) was “inactive” each time. In addition, the Activity entry in series [3] and in series [4] was “Non-toxic” throughout.
Regarding `Fc1ccc(NC(=S)Nc2ccccc2SSc2ccccc2NC(=S)Nc2ccc(F)cc2)cc1`, on Urease, the half-inhibitory concentration (IC50) is 0.4 µM. The inhibition result (with Serpentes; in series [1]; in series [2]) was “inactive” throughout. The Activity result in series [3] and in series [4] was “Non-toxic” in each case.
